Measured values reported in US20040091853A1 (priority 2003, published 2004).
Like-named read-outs stand apart in the source and are kept apart here.

Assays:
[1] = test system: pNL4-3-derived HIV reporter particles; format: cell-based; settings: particles made in presence of 1 μM inhibitor; supernatants tested on target cells
[2] = test system: pNL4-3-derived HIV reporter particles; format: cell-based
[3] = test system: VSV-G-enveloped particles; format: cell-based, HIV

Row | Compound | percentage of blue cells [1] | effect on ability of HIV reporter particle to transfer β-lactamase to target cells [2] | percentage of blue cells [2] | blue cells in presence versus absence of NH4Cl [3] | percentage of blue cells [3] | blocking of transfer of β-lactamase [2] | blocking of transfer of β-lactamase to target cells [3] | blocking of transfer of β-lactamase to target cells [2]
1 | CCc1cc(NCc2nc3c(Cl)ccc(Cl)c3o2)c(O)nc1C [L-697661] | ˜10-20% blue cells | had no effect | 10-20% blue cells | – | – | – | – | –
2 | Cl.N [NH4Cl] | – | – | ˜10% blue cells | significantly fewer blue cells | ˜10% blue cells | did not block transfer of β-lactamase | – | –
3 | enfuvirtide | – | – | – | – | – | – | neither agent blocked transfer of β-lactamase | blocked the transfer of β-lactamase to target cells
